Test results from patent publication US6627647B1, “Substituted 1-(4-aminophenyl)imidazoles and their use as anti-inflammatory agents” (Boehringer Ingelheim Pharmaceuticals, Inc., priority 2000, dated 2003).
pIC50: −log10 of the molar value.

Test system: IL-2 promoter/enhancer
Assay: IL-2 promoter assay (luciferase reporter in J.1F/C6 Jurkat cells)
Assay type: cell-based
Conditions: Homo sapiens; J.1F/C6 Jurkat cell line, induction with ionomycin and PMA; read-out: IC50, inhibition of luciferase activity in IL-2 promoter assay
Excerpt: The IL-2 promoter assay measures transcriptional activation of a luciferase reporter gene which has been placed under control of the IL-2 promoter/enhancer. All the known regulatory features of the IL-2 gene are contained within a ˜300 bp sequence immediately upstream of the open reading frame. The region −328 to +35 relative to the transcription start site of the IL-2 gene is obtained by […] of human genomic DNA and is subcloned into the promoterless luciferase reporter vector pGL2-Basic (Promega). The resulting construct, pIL2P-luc, and a vector containing a neomycin resistance gene, pcDNA/Neo (Invitrogen), are linearized and stably transfected into Jurkat cells (a human T-cell line) by electroporation.
For screening compounds, the cells are pelleted by centrifugation, washed once with PBS, resuspended in RPMI (phenol red-free) containing 5% FBS, and dispensed into 96-well, white microtiter plates (Packard) at 50,000 cells/well. The cells are pre-incubated with compounds (1 μg/ml) for 15 min prior to addition of ionomycin (1 μg/ml) and PMA (10 ng/ml) in a final volume of 100 μl. Following a 5 hr incubation at 37° C. in a humidified incubator, 100 μl of Luc-Lite lysis buffer/luciferase assay buffer (Promega) is added and luminescence measured using a Packard TopCount scintillation counter/luminometer.

pIC50: 9.52
SMILES: C=CC[C@@H]1/C=C(\C)C[C@H](C)C[C@H](OC)[C@H]2O[C@@](O)(C(=O)C(=O)N3CCCC[C@H]3C(=O)O[C@H](/C(C)=C/[C@@H]3CC[C@@H](O)[C@H](OC)C3)[C@H](C)[C@@H](O)CC1=O)[C@H](C)C[C@@H]2OC [FK506]
